We go through one molecule from EPA's ToxValDB 9.5 (doi:10.2903/j.efsa.2010.1913).

The structures appear in SMILES notation.

For one series, the system named is Colinus virginianus. The settings on record: acute; oral; mortality.
A further series concerns Canidae. Conditions: oral, Dog Other, organ weight.
A further series has as its system Daphnia magna. Conditions: chronic/long-term; duration: 21 days; reproduction.
In another series the test system is Tagia sp. The settings on record: acute; duration: 14 days; mortality.
A further series concerns Apis mellifera. Conditions: acute; oral; unspecified; mortality.
In the next series the test system is Mus musculus. The settings on record: oral.
In a further series the test system is Cyprinus carpio. Conditions: acute; duration: 96 hours; mortality.
For the next series, the system named is Aphidius rhopalosiphi. In words: LR50; higher = less toxic. Conditions: not reported; mortality.
Where [1] appears, read: reproduction developmental, reproduction.

Consider `CCNC(=O)[C@@H](C)OC(=O)Nc1ccccc1` [Carbetamide], for which the LD50 in the series on Colinus virginianus was more than 2000 mg/kg-day; with Apis mellifera, more than 63.2 µg/piece; in the series with Rattus norvegicus (acute, oral, mortality), more than 2000 mg/kg-day; in the series with Mus musculus (acute, mortality), 1720 mg/kg-day. The NOAEL with Canidae (chronic, duration: 1 years) worked out at 30 mg/kg-day; in the series with Canidae (subchronic, duration: 90 days), 30 mg/kg-day; in the series with Rattus norvegicus (chronic, duration: 2 years, oral, histopathology: nonneoplastic) it was 6 mg/kg-day; with Rattus norvegicus (setting [1]), 208 mg/kg-day; with Rattus norvegicus (subchronic, duration: 90 days, oral, histopathology: nonneoplastic) it was 12.5 mg/kg-day. Further, the NOEC in the series with Daphnia magna was 1 mg/L; in the series on Coturnix japonica (setting [1]) it was 169 mg/kg-day; in the series on Oncorhynchus mykiss (chronic/long-term, duration: 21 days, growth), more than 100 mg/L. Also, the LC50 is 660 mg/kg in the series on Tagia sp.; more than 1040 mg/kg-day with Coturnix japonica (acute, oral, diet, mortality); more than 100 µg/mL in the series on Oncorhynchus mykiss (acute, duration: 96 hours, mortality); more than 100 µg/mL in the series with Cyprinus carpio. The same molecule registered an NOEL in the series on Mus musculus (chronic, duration: 104 weeks, histopathology: neoplastic) of 21 mg/kg-day. Moreover, the LR50 in the series with Aphidius rhopalosiphi is more than 3020 g/ha.

A word on the NOAEL: it is the highest dose or exposure tested at which no adverse effect was seen.
